This is an account of results in patent US11999956B2, “Targeted therapy composition and its use for suppressing breast cancer cell proliferation, migration or invasion” (NATIONAL CHENG KUNG UNIVERSITY, priority 2021, dated 2024).

SMILES strings stand for the structures.

The subject of one experiment is SKBR3 cells. Description: IC50 of Metformin in SKBR3/Vec and SKBR3/siEMP3 cells. Format: cell-based, human. The following applies: 72 hours post treatment; SKBR3/siEMP3 vs SKBR3/Vec. From the text: Please refer to FIGS. 12A to 12B. The potential impact of EMP3 on sensitivity to Metformin in SKBR3 cells in vitro was illustrated therein. […] That means knocking down of EMP3 raises survival rate of breast cancer cells upon treatment of Metformin, which may imply a desensitizing effect of EMP3 on breast cancer cells in upon Metformin treatment. […] As well-known in the field of endeavor, interference of cross-talk between AMPK and Wnt/β-catenin signaling pathways may decelerate cell growth of breast cancer cells. In example 7, the intervention level of Metformin to AMPK in SKBR3/Vec and SKBR3/siEMP3 cancer cells was verified.

The next experiment relates to AMPK-α1 and AMPK-α2. Description: Western blot, effect of Metformin on AMPK signaling pathway in SKBR3 cells. Format: cell-based, human. The method, then: Cells were lyzed in a radioimmunoprecipitation assay (RIPA) lysis buffer (Thermo Fisher Scientific Inc., Waltham, MA) and protease inhibitors (Thermo Fisher Scientific Inc., Waltham, MA) were used for protein extraction. Briefly, a total of 30 μg of protein was prepared on a 6 to 12% SDS-PAGE and transferred to a 0.2 to 0.45 μm polyvinylidene difluoride membrane (Stratagene, La Jolla, CA) and blocked by 5% milk (non-fat milk) in Tris Buffered Saline Buffer with Tween 20 (TBST). The membrane was hybridized with primary antibody at 4° C. overnight. The following day, after being washed with TBST for three times, membranes were incubated with secondary antibodies (anti-rabbit or anti-mouse IgG antibody) for 1 hour at room temperature. Detection of protein bands was performed using enhanced chemiluminescence system (Amersham ECL Plus; GE Healthcare, Piscataway, NJ).
Please refer to FIGS. 12A to 12B. The potential impact of EMP3 on sensitivity to Metformin in SKBR3 cells in vitro was illustrated therein. […] That means knocking down of EMP3 raises survival rate of breast cancer cells upon treatment of Metformin, which may imply a desensitizing effect of EMP3 on breast cancer cells in upon Metformin treatment. […] As well-known in the field of endeavor, interference of cross-talk between AMPK and Wnt/β-catenin signaling pathways may decelerate cell growth of breast cancer cells. […]

Consider `CN(C)C(=N)N=C(N)N` [Metformin], for which the “IC50 values for Metformin in SKBR3/siEMP3 cells relative to vector control” value in the experiment on SKBR3 cells is on record as “higher”. In the experiment with AMPK-α1 and AMPK-α2, the AMPK-α1 expression entry was “down-regulated” and the AMPK-α2 expression entry was “down-regulated”.
